The source of these data is US10828370B2, “Selectin and ICAM/VCAM peptide ligand conjugates” (Purdue Research Foundation, priority 2014, dated 2020).

Test [1] has as its system Selectin (E-Selectin and S-Selectin). To be noted: selectin-binding peptide, free sequence; literature reference; cited from earlier work.
Test [2] concerns TNF-α stimulated endothelial cells (ECs). As to the kind of experiment: Relative binding affinity of EC-SEAL conjugates to endothelial cells (Streptavidin-HRP absorbance). To be noted: 3 μM treatments. It counts as cell-based.

Turning to IDLMQAR, the IC50 – broadly, the concentration at which inhibition is half-maximal – in test [1] is around 200 µM.

As for “IEL/DGE-10,10 (peptide 1 IELLQARGC; peptide 2 DGEATDGC)”, the “relative binding to endothelial cells vs single receptor-binding conjugates (FIG. 4)” value in test [2] is on record as “greater binding”. As to IELLQAR, the IC50 in test [1] was around 200 µM. Take QITWAQLWNMMK: the IC50 in test [1] was around 0.16 µM.
